For assay [1], the target named is T1, rhodesain (Trypanosoma brucei rhodesiense, UniProt Q95PM0).
T1 construct: made in house
Nature of the assay: Rhodesain protease inhibition assay (Z-Phe-Arg-AMC). The conditions noted are these: for Fold more potent inhibition of rhodesain than TbCatB: rhodesain vs TbCatB IC50. The assay is classed as biochemical. The protocol:
(§1) Recombinant cruzain, rhodesain, TbCatB, falcipain-2 and falcipain-3 were expressed as described previously, [39], [40], [41], [42]. Inhibitor stock solutions were prepared in DMSO and screened at 0.1 µM for cruzain and rhodesain, 1 µM for TbCatB and 50 nM for falcipain-3 (0.5% DMSO in assay). […] Protease inhibition assays for cruzain and rhodesain were carried out in 96 well plate format as described previously. Cruzain (4 nM), rhodesain (4 nM) or TbCatB (258 nM) was incubated with test compound in 100 mM sodium acetate, pH 5.5, containing 5 mM DTT and 0.01% Triton X-100 (buffer A), for 5 min at room temperature (the higher concentration of TbCatB was required due to its lower intrinsic activity against the fluorogenic substrate). Then buffer A containing Z-Phe-Arg-AMC (Bachem) was added to enzyme-compound mixture to give 10 µM substrate in a final assay volume of 200 µL. The rate of free AMC release was measured at excitation and emission wavelengths of 355 and 460 nm, respectively, with a microtiter plate spectrofluorimeter (SpectraMax M5, Molecular Devices) for 3 min. Percentage inhibition of test compound was calculated relative to the DMSO control (0% inhibition control). IC50 values were determined with Prism 4 software (GraphPad, San Diego, CA) using sigmoidal dose-response variable slope model.

For assay [2], the system named is intracellular T. cruzi (CA-I/72) in BESM cells. Nature of the assay: T. cruzi amastigote growth inhibition assay. Format: cell-based. The conditions noted are these: Trypanosoma cruzi; infected BESM cells, 72 hours. The protocol: The growth inhibition assay for the intracellular T. cruzi was conducted in 96-well plate format as described previously. Briefly, bovine embryo skeletal muscle (BESM) cells (2×10^3/well), seeded overnight, were infected with CA-I/72 T. cruzi trypomastigotes (2×10^3/well). Sixteen hours post-infection, test compounds (serial dilution concentrations starting from 20 µM) were added and assay plates were incubated for an additional 72 hours at 37°C with 5% CO2. Cells were then washed once in PBS, fixed with 4% paraformaldehyde and stained with DNA fluorescent dye DAPI (4′ 6-diamidino-2-phenylindole). The assay plates were then imaged in the IN Cell Analyzer 2000 (GE Healthcare) with the excitation and emission filters set of 350 nm and 460 nm, respectively, to detect DAPI signals. The feature extraction module in IN Cell Developer Toolbox 1.7 software was used to count host nuclei and parasite kinetoplasts by size difference.

Assay [3] relates to W2-strain P. falciparum parasites. The assay is described as follows: P. falciparum growth inhibition assay. Format: cell-based, Plasmodium falciparum. Particulars: Plasmodium falciparum; cultured W2 strain, 48 hours; read-out: GI50 P. falc. W2. The protocol: The growth inhibition assay for P. falciparum was conducted as described previously. W2-strain P. falciparum parasites (1% parasitemia, 2% hematocrit) were cultured at 37°C in human red blood cells under the atmosphere of 3% O2, 5% CO2 balance N2 in 0.2 mL of per well in medium RPMI-1640 supplemented with 10% human serum in duplicate 96-well flat bottom culture plates in the presence of inhibitors. Tested compounds were serially diluted 1∶3 in the range 10,000 – 4.6 nM, with maximum DMSO concentration of 0.1%. Following 48 hours of incubation, the medium was removed and the cells were fixed in 2% formaldehyde in PBS. Parasite growth was evaluated by flow cytometry on a FACsort (Becton Dickinson) equipped with AMS-1 loader (Cytek Development) after staining with 1 nM DNA dye YOYO-1(Molecular Probes) in 100 mM NH4Cl, 0.8% NaCl. Parasitemias were determined from dot plots (forward scatter vs. fluorescence) using […] software (Becton Dickinson). IC50 values for growth inhibition were determined from plots of percentage control parasitemia over inhibitor concentration using GraphPad Prism software.

Assay [4] deals with T2, TbCatB (Trypanosoma brucei, UniProt Q6R7Z5).
T2 construct: made in house
T2 sequence (Q6R7Z5 23-340): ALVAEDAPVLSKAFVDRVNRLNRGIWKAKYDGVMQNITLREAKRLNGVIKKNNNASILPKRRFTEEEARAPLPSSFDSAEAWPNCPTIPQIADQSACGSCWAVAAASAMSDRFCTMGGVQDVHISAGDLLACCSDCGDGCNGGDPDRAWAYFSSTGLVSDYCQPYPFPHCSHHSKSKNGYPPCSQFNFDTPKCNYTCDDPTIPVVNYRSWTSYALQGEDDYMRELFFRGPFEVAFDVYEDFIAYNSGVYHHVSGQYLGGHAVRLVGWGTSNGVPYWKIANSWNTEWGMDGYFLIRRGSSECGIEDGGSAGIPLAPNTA
Nature of the assay: TbCatB protease inhibition assay (Z-Phe-Arg-AMC). The assay is classed as biochemical. The protocol: as §1

T1 sequence (Q95PM0 entry or part of it): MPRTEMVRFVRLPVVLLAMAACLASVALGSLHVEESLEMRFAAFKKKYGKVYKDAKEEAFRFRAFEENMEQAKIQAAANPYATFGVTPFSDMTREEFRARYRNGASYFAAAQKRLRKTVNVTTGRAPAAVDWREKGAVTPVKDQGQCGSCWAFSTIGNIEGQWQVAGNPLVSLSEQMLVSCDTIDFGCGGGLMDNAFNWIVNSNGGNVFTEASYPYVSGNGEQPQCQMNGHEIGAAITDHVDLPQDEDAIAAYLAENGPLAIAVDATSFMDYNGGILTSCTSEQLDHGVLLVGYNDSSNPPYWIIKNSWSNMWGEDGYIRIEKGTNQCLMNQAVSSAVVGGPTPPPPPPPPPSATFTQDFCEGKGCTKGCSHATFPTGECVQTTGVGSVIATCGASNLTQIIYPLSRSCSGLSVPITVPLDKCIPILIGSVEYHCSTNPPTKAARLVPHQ

`CCCCC(NC(=O)C(CC(C)C)NC(=O)N1CCOCC1)C(=O)c1nc2ccccc2o1` (stereo not shown) [Compound 19a]: the IC50 (commonly the concentration at which inhibition is half-maximal) was 1 nM in assay [1] and 1000 nM in assay [4]. Besides, in assay [1], the “Fold more potent inhibition of rhodesain than TbCatB” value was ~1000 fold. In addition, the GI50 (commonly the concentration at which growth is held to half of that of the control) is 20000 nM in assay [2] and 1200 nM in assay [3].
For `CCCCC(NC(=O)C(Cc1ccccc1)NC(=O)N1CCOCC1)C(=O)c1nc2ccccc2o1` (stereo not shown) [Compound 19b], the IC50 amounted to 1 nM in assay [1] and 600 nM in assay [4]. Moreover, the “Fold more potent inhibition of rhodesain than TbCatB” value in assay [1] was ~1000 fold. The GI50 came out at 10900 nM in assay [2] and 2900 nM in assay [3].

Source of the values: paper PMC3086806, “Mining a Cathepsin Inhibitor Library for New Antiparasitic Drug Leads” (PLoS Neglected Tropical Diseases, 2011).
